How the values were obtained:
[1] = system: mast cell protease-1 (MCPT-1); test: Serum MCPT-1 concentration by ELISA, food allergy mouse model; assay type: in vivo; conditions: ovalbumin food allergy BALB/C mice, serum one day after last administration, FIG. 3(B)
Method: (§1) For immunization of the mice, 20 μg of ovalbumin was mixed with 2 mg of alum, and the mixture was intraperitoneally injected to the mice two times every two weeks. Food allergy induction was induced by performing the second immunization injection and two weeks thereafter, 50 mg of ovalbumin was orally administered thereto five times every three days to cause an allergic response. […] Here, as a positive control, a mice group was used to which dexamethasone was administered every day. 50 mg of ovalbumin alone or the chaga mushroom extract, the fraction, or the inotodiol compound was lastly administered thereto, followed by observation on symptoms caused by allergy one hour thereafter.

[2] = system: mast cells in small intestine; test: Number of mast cells in small intestine (toluidine staining), food allergy mouse model; assay type: in vivo; conditions: ovalbumin food allergy BALB/C mice; toluidine stained small intestine sections; FIG. 2(B)
Method: (§2) To prepare allergy mouse models, 5-week-old male BALB/C mice were used. Food allergy models were prepared using ovalbumin of chicken as an allergy-inducing material (allergen).
as §1

[3] = system: egg white protein-specific IgE; test: Serum IgE concentration by ELISA, food allergy mouse model; assay type: in vivo; conditions: ovalbumin food allergy BALB/C mice, serum one day after last administration, FIG. 3(A)
Method: as §1

[4] = system: food allergy-induced mouse model; test: Stool observation (diarrhea score) in ovalbumin food allergy mouse model; assay type: in vivo; conditions: ovalbumin food allergy BALB/C mice; oral daily; inotodiol, dexamethasone, cholesterol 20 mg/kg; extract and fractions 320 mg/kg; score 0-4 (Table 4); FIG. 1(C)
Method: as §2, §1

[5] = system: cytokine produced by Th2 CD4^+ T cells (IL-5, IL-13, IFN-γ); test: Cytokine production by mesenteric lymph node cells of treated food allergy mice (ELISA); assay type: in vivo, mouse; conditions: mLN cells of treated food allergy mice cultured three days with 100 μg/mL ovalbumin (OVA); FIG. 4(A)
Method: (§3) In order to examine the effect of an inotodiol compound or a chaga mushroom extract containing an inotodiol compound on CD4^+ T cell activity regulation, analysis of expression level of cytokine produced by Th2 CD4^+ T cell and adoptive transfer experiments using CD4^+ TCR transgenic T cells that express DO11.00 TCR, i.e., the ovalbumin-derived peptide specific T cell receptor (TCR), were performed.
For the expression of cytokine, a sample was treated in the same manner as in Experimental Example 1, and the cells were isolated from the mesenteric lymph node (mLN) of mice of each group after one day. At this time, a group treated with 10 mg/kg of dexamethasone, a group treated with 20 mg/kg of imatinib (Gleevec), which is used as a mast cell […] therapeutic agent, and a group treated with 20 mg/kg of cholesterol that is similar in structure to the inotodiol compound were added. The isolated cells were dispensed into wells of a 96-well plate at a rate of 1×10^6 cells/well. RPMI complete medium (containing 10% fetal bovine serum (FBS), penicillin, streptomycin, and glutamine) containing ovalbumin or RPMI complete medium containing 100 μg/mL of ovalbumin was inoculated and culture for three days under a condition of 37° C. and 5% CO2. […]

mast cell degranulation = test: Passive systemic anaphylaxis: rectal temperature; assay type: in vivo, mouse; conditions: passive systemic anaphylaxis (anti-DNP-IgE, DNP-BSA i.v.); oral once a day for 3 days; inotodiol 20 mg/kg, ethanol extract 320 mg/kg; FIG. 5(A)
Method: (§4) On the third day after oral administration, 3 μg of anti-dinitrophenol (DNP)-IgE was intravenously injected, and after 24 hours, mast cell degranulation was induced by intravenous injection of 80 μg of DNP-conjugated bovine serum albumin (BSA). The rectal temperature of mice induced mast cell degranulation was measured, and the amount of MCPT-1 in the blood was analyzed.

[6] = system: food allergy-induced mouse model; test: Anaphylaxis symptom score in ovalbumin food allergy mouse model; assay type: in vivo; conditions: ovalbumin food allergy BALB/C mice; oral daily; inotodiol, dexamethasone, cholesterol 20 mg/kg; extract and fractions 320 mg/kg; score 0-4 (Table 3); FIG. 1(B)
Method: as §2, §1

[7] = system: eosinophils in small intestine; test: Eosinophil infiltration in small intestine (H&E staining), food allergy mouse model; assay type: in vivo; conditions: ovalbumin food allergy BALB/C mice; H&E stained small intestine sections; FIG. 2(A)
Method: as §2, §1
The mice of each experimental group in Experimental Example 1 were anesthetized and cut the abdomen. Then, the small intestine was removed, fixed with formalin, treated with paraffin, permeated with paraffin, and microsectioned using microtome, thereby obtaining tissue sections. The obtained small intestine sections were stained with hematoxylin and eosin (H&E) to observe eosinophil cells.

[8] = system: CD4^+ T cells expressing DO11.00 TCR; test: Adoptive transfer of CFSE-stained DO11.10 TCR CD4+ T cells, ovalbumin-induced division (flow cytometry); assay type: in vivo, mouse; conditions: BALB/C mice; oral once a day for four days; inotodiol 20 mg/kg, ethanol extract 320 mg/kg, imatinib 10 mg/kg; five days after ovalbumin injection; FIG. 4(B)
Method: as §3
Experiments to measure a degree of ovalbumin-derived peptide specific T cell immune response from an animal experiment were performed as follows. Cells were isolated from the lymph nodes of transgenic mice expressing DO11.10TCR. The isolated cells were fluorescence-stained with carboxyfluorescein succinimidyl ester (CFSE), and 2×10^6 cells were injected intravenously into BALB/C mice. Cells were injected intraperitoneally with ovalbumin (50 μg) and alum to induce division of CD4^+ T cells expressing DOII.00 TCR. Oral administration of 20 mg/kg of the inotodiol compound, 320 mg/kg of the chaga mushroom ethanol extract, 10 mg/kg of dexamethasone, 10 mg/kg of imatinib, or 20 mg/kg of the cholesterol was performed once a day for four days starting from one day after ovalbumin injection. After five days of ovalbumin injection, the cells were isolated from BALB/C lymph nodes, stained with anti-CD4 antibody and anti-DO11.10 antibody, and measured CFSF fluorescence intensity of the CD4^+ T cell expressing DOII.00 TCR using flow cytometry to determine the cell division degree. Then, the number of cells was measured. Here, the CFSF fluorescence intensity decreased as the cell division increases.

[9] = system: mast cell degranulation (MCPT-1); test: Passive systemic anaphylaxis: MCPT-1 in blood; assay type: in vivo, mouse; conditions: passive systemic anaphylaxis (anti-DNP-IgE, DNP-BSA i.v.); oral once a day for 3 days; inotodiol 20, ethanol extract 320, cholesterol 20, dexamethasone 10, imatinib 20 mg/kg; FIG. 5(B)
Method: as §4

Row | Structure (SMILES) | concentration of MCPT-1 in serum [1] | number of mast cells in the small intestine [2] | concentration of egg white protein-specific IgE in serum [3] | diarrhea symptom score (stool symptom score) [4] | amount of IL-5, IL-13, and IFN-γ (cytokine expression by Th2 CD4+ T cells) [5] | rectal temperature after induced mast cell degranulation (mast cell degranulation) | anaphylaxis score [6] | infiltration of eosinophils in the small intestine (number of stained eosinophil cells) [7] | number of CD4+ T cells expressing DO11.00 TCR [8] | concentration of MCPT-1 in the blood after induced mast cell degranulation [9] | CFSE fluorescence intensity of CD4+ T cell expressing DO11.00 TCR (cell division degree) [8]
1 | CC(C)=CC[C@@H](O)[C@@H](C)[C@H]1CC[C@@]2(C)C3=C(CC[C@]12C)[C@@]1(C)CC[C@H](O)C(C)(C)[C@@H]1CC3 [Inotodiol, inotodiol] | decreased significantly | decreased number of mast cells | no substantial change in the concentration of IgE | lower than that of the food allergy-induced group | not substantially different from the expression amount of IL-5, IL-13, and IFN-γ | did not decrease the rectal temperature | lower anaphylaxis score than the food allergy-induced group | decreased infiltration of eosinophils | significantly increased number of CD4^+T cells | level of increase in concentration of MCPT-1 was significantly decreased | –
2 | Cc1ccc(NC(=O)c2ccc(CN3CCN(C)CC3)cc2)cc1Nc1nccc(-c2cccnc2)n1 [Imat., imatinib] | – | – | – | – | – | – | – | – | no difference in the CFSE fluorescence intensity and the number of cells, as compared with the unimmune group | level of increase in concentration of MCPT-1 was significantly decreased | no difference in the CFSE fluorescence intensity and the number of cells, as compared with the unimmune group
3 | CC(C)CCC[C@@H](C)[C@H]1CC[C@H]2[C@@H]3CC=C4C[C@@H](O)CC[C@]4(C)[C@H]3CC[C@]12C [cholesterol, reference compound] | – | little decrease in the number of eosinophils and mast cells | – | – | – | – | – | little decrease in the number of eosinophils and mast cells | – | MCPT-1 did not decrease | –
